Measurements as given in PubChem BioAssay AID1259407 (Chemical Carcinogenesis Research Information System (CCRIS), 2018).
Calls of active or inactive are those of the source. How the calls were made is not given here.

System: CCRIS mutagenicity, Ames/micronucleus/aberration tests
Assay: CCRIS mutagenicity studies
[1] = Test System: AMES SALMONELLA TYPHIMURIUM, Strain/Indicator: TA98, Metabolic Activation: NONE, Method: PREINCUBATION
[2] = Test System: AMES SALMONELLA TYPHIMURIUM, Strain/Indicator: TA98, Metabolic Activation: NONE, Method: STANDARD PLATE
[3] = Test System: AMES SALMONELLA TYPHIMURIUM, Strain/Indicator: TA98, Metabolic Activation: RAT, LIVER, S-9, AROCLOR 1254, Method: STANDARD PLATE
[4] = Test System: AMES SALMONELLA TYPHIMURIUM, Strain/Indicator: TA100, Metabolic Activation: NONE, Method: STANDARD PLATE
[5] = Test System: AMES SALMONELLA TYPHIMURIUM, Strain/Indicator: TA100, Metabolic Activation: RAT, LIVER, S-9, AROCLOR 1254, Method: STANDARD PLATE

C=C(C)CCl
mutagenic call (End Point: IN VITRO CHROMOSOMAL ABERRATIONS, Test System: CHL CELLS, Metabolic Activation: RAT, LIVER, S-9, SODIUM PHENOBARBITAL AND 5,6-BENZOFLAVONE): active; positive (structural changes) | mutagenic call (Test System: AMES SALMONELLA TYPHIMURIUM, Strain/Indicator: TA97, Metabolic Activation: HAMSTER, LIVER, S-9, AROCLOR 1254 (10 OR 30%), Method: PREINCUBATION): inactive; negative | mutagenic call (Test System: AMES SALMONELLA TYPHIMURIUM, Strain/Indicator: TA97, Metabolic Activation: NONE, Method: PREINCUBATION): inactive; negative | mutagenic call (Test System: AMES SALMONELLA TYPHIMURIUM, Strain/Indicator: TA97, Metabolic Activation: RAT, LIVER, S-9, AROCLOR 1254 (10 OR 30%), Method: PREINCUBATION): inactive; negative | mutagenic call (Test System: AMES SALMONELLA TYPHIMURIUM, Strain/Indicator: TA98, Metabolic Activation: HAMSTER, LIVER, S-9, AROCLOR 1254 (10 OR 30%), Method: PREINCUBATION): inactive; negative | mutagenic call [1]: inactive; negative | mutagenic call (Test System: AMES SALMONELLA TYPHIMURIUM, Strain/Indicator: TA98, Metabolic Activation: RAT LIVER S-9, PHENOBARBITAL AND BETA-NAPHTHOFLAVONE, Method: PREINCUBATION): inactive; negative | mutagenic call (Test System: AMES SALMONELLA TYPHIMURIUM, Strain/Indicator: TA98, Metabolic Activation: RAT, LIVER, S-9, AROCLOR 1254 (10 OR 30%), Method: PREINCUBATION): inactive; negative | mutagenic call (Test System: AMES SALMONELLA TYPHIMURIUM, Strain/Indicator: TA100, Metabolic Activation: HAMSTER, LIVER, S-9, AROCLOR 1254 (10 OR 30%), Method: PREINCUBATION): inactive; negative | mutagenic call (Test System: AMES SALMONELLA TYPHIMURIUM, Strain/Indicator: TA100, Metabolic Activation: NONE, Method: LIQUID SUSPENSION): active; positive | mutagenic call (Test System: AMES SALMONELLA TYPHIMURIUM, Strain/Indicator: TA100, Metabolic Activation: NONE, Method: PREINCUBATION): inactive; negative | mutagenic call (Test System: AMES SALMONELLA TYPHIMURIUM, Strain/Indicator: TA100, Metabolic Activation: RAT LIVER S-9, PHENOBARBITAL AND BETA-NAPHTHOFLAVONE, Method: PREINCUBATION): inactive; negative | mutagenic call (Test System: AMES SALMONELLA TYPHIMURIUM, Strain/Indicator: TA100, Metabolic Activation: RAT, LIVER, S-9, AROCLOR 1254 (10 OR 30%), Method: PREINCUBATION): inactive; negative | mutagenic call (Test System: AMES SALMONELLA TYPHIMURIUM, Strain/Indicator: TA100, Metabolic Activation: RAT, LIVER, S-9, Method: LIQUID SUSPENSION): active; positive | mutagenic call (Test System: AMES SALMONELLA TYPHIMURIUM, Strain/Indicator: TA102, Metabolic Activation: NONE, Method: PREINCUBATION): inactive; negative | mutagenic call (Test System: AMES SALMONELLA TYPHIMURIUM, Strain/Indicator: TA102, Metabolic Activation: RAT LIVER S-9, PHENOBARBITAL AND BETA-NAPHTHOFLAVONE, Method: PREINCUBATION): inactive; negative | mutagenic call (Test System: AMES SALMONELLA TYPHIMURIUM, Strain/Indicator: TA102, Metabolic Activation: RAT, LIVER, S-9, PHENOBARBITAL AND 5,6-BENZOFLAVONE, Method: STANDARD PLATE): inactive; negative | mutagenic call (Test System: AMES SALMONELLA TYPHIMURIUM, Strain/Indicator: TA104, Metabolic Activation: NONE, Method: PREINCUBATION): inactive; negative | mutagenic call (Test System: AMES SALMONELLA TYPHIMURIUM, Strain/Indicator: TA104, Metabolic Activation: RAT LIVER S-9, PHENOBARBITAL AND BETA-NAPHTHOFLAVONE, Method: PREINCUBATION): inactive; negative | mutagenic call (Test System: AMES SALMONELLA TYPHIMURIUM, Strain/Indicator: TA1535, Metabolic Activation: HAMSTER, LIVER, S-9, AROCLOR 1254 (10 OR 30%), Method: PREINCUBATION): inactive; negative | mutagenic call (Test System: AMES SALMONELLA TYPHIMURIUM, Strain/Indicator: TA1535, Metabolic Activation: NONE, Method: PREINCUBATION): inactive; negative | mutagenic call (Test System: AMES SALMONELLA TYPHIMURIUM, Strain/Indicator: TA1535, Metabolic Activation: RAT LIVER S-9, PHENOBARBITAL AND BETA-NAPHTHOFLAVONE, Method: PREINCUBATION): inactive; negative | mutagenic call (Test System: AMES SALMONELLA TYPHIMURIUM, Strain/Indicator: TA1535, Metabolic Activation: RAT, LIVER, S-9, AROCLOR 1254 (10 OR 30%), Method: PREINCUBATION): inactive; negative | mutagenic call (Test System: AMES SALMONELLA TYPHIMURIUM, Strain/Indicator: TA1537, Metabolic Activation: HAMSTER, LIVER, S-9, AROCLOR 1254 (10 OR 30%), Method: PREINCUBATION): inactive; negative | mutagenic call (Test System: AMES SALMONELLA TYPHIMURIUM, Strain/Indicator: TA1537, Metabolic Activation: NONE, Method: PREINCUBATION): inactive; negative | mutagenic call (Test System: AMES SALMONELLA TYPHIMURIUM, Strain/Indicator: TA1537, Metabolic Activation: RAT LIVER S-9, PHENOBARBITAL AND BETA-NAPHTHOFLAVONE, Method: PREINCUBATION): inactive; negative | mutagenic call (Test System: AMES SALMONELLA TYPHIMURIUM, Strain/Indicator: TA1537, Metabolic Activation: RAT, LIVER, S-9, AROCLOR 1254 (10 OR 30%), Method: PREINCUBATION): inactive; negative | mutagenic call (Test System: AMES SALMONELLA TYPHIMURIUM, Strain/Indicator: TA2638, Metabolic Activation: RAT, LIVER, S-9, PHENOBARBITAL AND 5,6-BENZOFLAVONE, Method: STANDARD PLATE): inactive; negative | mutagenic call (Test System: E. COLI, Strain/Indicator: WP2 (PKM101), Metabolic Activation: RAT, LIVER, S-9, PHENOBARBITAL AND 5,6-BENZOFLAVONE, Method: STANDARD PLATE): inactive; negative | mutagenic call (Test System: E. COLI, Strain/Indicator: WP2 UVRA (PKM101), Metabolic Activation: RAT, LIVER, S-9, PHENOBARBITAL AND 5,6-BENZOFLAVONE, Method: STANDARD PLATE): inactive; negative | mutagenic call (Test System: E.COLI, Strain/Indicator: WP2UVRA/PKM101, Metabolic Activation: NONE, Method: PREINCUBATION): inactive; negative | mutagenic call (Test System: E.COLI, Strain/Indicator: WP2UVRA/PKM101, Metabolic Activation: RAT LIVER S-9, PHENOBARBITAL AND BETA-NAPHTHOFLAVONE, Method: PREINCUBATION): active; positive | mutagenic call (Test System: E.COLI, Strain/Indicator: WP2UVRA, Metabolic Activation: NONE, Method: PREINCUBATION): inactive; negative | mutagenic call (Test System: E.COLI, Strain/Indicator: WP2UVRA, Metabolic Activation: RAT LIVER S-9, PHENOBARBITAL AND BETA-NAPHTHOFLAVONE, Method: PREINCUBATION): inactive; negative

COc1cc([N+](=O)[O-])ccc1NC(C)=O
mutagenic call [2]: active; positive | mutagenic call [3]: inactive; negative

O=[N+]([O-])c1ccc2nc3c([N+](=O)[O-])cccc3nc2c1
mutagenic call (Test System: AMES SALMONELLA TYPHIMURIUM, Strain/Indicator: TA98(NR), Metabolic Activation: NONE, Method: PREINCUBATION): active; positive | mutagenic call [1]: active; positive

C=COc1ccccc1
mutagenic call [2]: inactive; negative | mutagenic call (Test System: AMES SALMONELLA TYPHIMURIUM, Strain/Indicator: TA98, Metabolic Activation: RAT LIVER MICROSOMES, Method: STANDARD PLATE): inactive; negative | mutagenic call (Test System: AMES SALMONELLA TYPHIMURIUM, Strain/Indicator: TA1535, Metabolic Activation: NONE, Method: STANDARD PLATE): inactive; negative | mutagenic call (Test System: AMES SALMONELLA TYPHIMURIUM, Strain/Indicator: TA1535, Metabolic Activation: RAT LIVER MICROSOMES, Method: STANDARD PLATE): active; positive

CC=C(C)C(=O)O[C@H]1[C@H](OC(C)=O)[C@]2(CO)[C@H](O)C[C@]3(C)C(=CC[C@@H]4[C@@]5(C)CC[C@@H](O[C@@H]6O[C@H](C(=O)O)[C@@H](O[C@@H]7O[C@H](CO)[C@@H](O)[C@H](O)[C@H]7O)[C@H](O)[C@H]6O[C@@H]6O[C@H](CO)[C@@H](O)[C@H](O)[C@H]6O)[C@](C)(CO)[C@@H]5CC[C@]43C)[C@@H]2CC1(C)C
mutagenic call (Test System: AMES SALMONELLA TYPHIMURIUM, Strain/Indicator: TA97, Metabolic Activation: NONE, Method: STANDARD PLATE): inactive; negative | mutagenic call (Test System: AMES SALMONELLA TYPHIMURIUM, Strain/Indicator: TA97, Metabolic Activation: RAT, LIVER, S-9, AROCLOR 1254, Method: STANDARD PLATE): inactive; negative | mutagenic call [2]: inactive; negative | mutagenic call [3]: inactive; negative | mutagenic call [4]: inactive; negative | mutagenic call [5]: inactive; negative | mutagenic call (Test System: AMES SALMONELLA TYPHIMURIUM, Strain/Indicator: TA102, Metabolic Activation: NONE, Method: STANDARD PLATE): inactive; negative | mutagenic call (Test System: AMES SALMONELLA TYPHIMURIUM, Strain/Indicator: TA102, Metabolic Activation: RAT, LIVER, S-9, AROCLOR 1254, Method: STANDARD PLATE): inactive; negative

O=c1c(O)c2c(c3c1ccc1[nH]cccc13)O2
mutagenic call [4]: inactive; negative

Clc1c2ccccc2cc2ccccc12
mutagenic call [3]: active; positive | mutagenic call [5]: active; positive
